Results published in patent publication US8039464B2, “Muscarinic antagonists with PARP and SIR modulating activity as agents for inflammatory diseases” (ProteoSys AG, priority 2004, dated 2011).
Values joined by “and” are separate entries in the source; they are usually repeats but may differ in a detail not shown here. Equal entries are not always repeated. “Also recorded” adds a separate entry of the source. Where two headings read alike, the source gives them in different places.

Legend:
[1] = target: T1, PARP-1 (Homo sapiens, UniProt P09874); assay: PARP inhibition assay (R&D Systems, Cat. No. TA4669); type: biochemical
T1 construct: purchased R&D Systems TA4669
T1 sequence (P09874 whole entry): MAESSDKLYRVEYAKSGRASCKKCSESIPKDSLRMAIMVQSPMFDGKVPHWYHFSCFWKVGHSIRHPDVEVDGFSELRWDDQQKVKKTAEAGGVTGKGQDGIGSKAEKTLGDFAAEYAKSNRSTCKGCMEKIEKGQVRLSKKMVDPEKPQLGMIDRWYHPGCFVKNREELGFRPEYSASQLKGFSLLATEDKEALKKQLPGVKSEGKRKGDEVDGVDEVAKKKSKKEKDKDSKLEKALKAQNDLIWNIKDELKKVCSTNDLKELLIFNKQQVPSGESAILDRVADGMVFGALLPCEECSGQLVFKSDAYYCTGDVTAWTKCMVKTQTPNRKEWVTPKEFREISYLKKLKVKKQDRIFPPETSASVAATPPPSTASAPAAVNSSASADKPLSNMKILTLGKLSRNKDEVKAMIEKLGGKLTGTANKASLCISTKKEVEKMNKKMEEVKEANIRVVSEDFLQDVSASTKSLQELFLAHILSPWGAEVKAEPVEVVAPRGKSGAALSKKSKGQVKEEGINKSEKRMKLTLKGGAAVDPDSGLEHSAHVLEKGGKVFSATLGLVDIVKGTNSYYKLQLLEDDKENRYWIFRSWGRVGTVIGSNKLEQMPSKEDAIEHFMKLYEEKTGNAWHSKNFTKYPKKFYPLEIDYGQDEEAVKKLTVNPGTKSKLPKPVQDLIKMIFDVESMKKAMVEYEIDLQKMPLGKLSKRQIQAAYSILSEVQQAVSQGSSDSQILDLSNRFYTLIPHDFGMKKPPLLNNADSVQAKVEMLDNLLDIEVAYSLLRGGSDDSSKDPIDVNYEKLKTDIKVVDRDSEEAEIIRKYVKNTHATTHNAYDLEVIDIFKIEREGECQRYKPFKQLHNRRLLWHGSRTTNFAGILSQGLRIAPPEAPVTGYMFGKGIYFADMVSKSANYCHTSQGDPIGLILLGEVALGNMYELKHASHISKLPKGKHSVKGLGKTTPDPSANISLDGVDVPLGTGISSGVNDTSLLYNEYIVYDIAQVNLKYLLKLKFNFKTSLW
Source text: A PARP inhibition assay from R&D Systems was used (Cat. No. TA4669) according to instructions of the supplier.
Under cellular conditions PARP-1 poly-ADP-ribosylates a host of nuclear proteins, including topoisomerase 1, 14-3-3 g and PARP-1 itself. Thus under cellular conditions, the self-modification of PARP-1 and dimerization are regulating its activity, moreover there is a tight interplay with PARG (poly-ADP-ribosyl-glycohydroxylase).

[2] = target: T2, SIR-2 (Mus musculus, UniProt Q923E4); assay: SIR2 activity assay (CycLex SIR2 Assay kit); type: biochemical, murine
T2 construct: Using a raw extract from murine embryonic stem cells; host or cells: murine embryonic stem cells (raw extract)
T2 sequence (Q923E4 2-737 limits assumed): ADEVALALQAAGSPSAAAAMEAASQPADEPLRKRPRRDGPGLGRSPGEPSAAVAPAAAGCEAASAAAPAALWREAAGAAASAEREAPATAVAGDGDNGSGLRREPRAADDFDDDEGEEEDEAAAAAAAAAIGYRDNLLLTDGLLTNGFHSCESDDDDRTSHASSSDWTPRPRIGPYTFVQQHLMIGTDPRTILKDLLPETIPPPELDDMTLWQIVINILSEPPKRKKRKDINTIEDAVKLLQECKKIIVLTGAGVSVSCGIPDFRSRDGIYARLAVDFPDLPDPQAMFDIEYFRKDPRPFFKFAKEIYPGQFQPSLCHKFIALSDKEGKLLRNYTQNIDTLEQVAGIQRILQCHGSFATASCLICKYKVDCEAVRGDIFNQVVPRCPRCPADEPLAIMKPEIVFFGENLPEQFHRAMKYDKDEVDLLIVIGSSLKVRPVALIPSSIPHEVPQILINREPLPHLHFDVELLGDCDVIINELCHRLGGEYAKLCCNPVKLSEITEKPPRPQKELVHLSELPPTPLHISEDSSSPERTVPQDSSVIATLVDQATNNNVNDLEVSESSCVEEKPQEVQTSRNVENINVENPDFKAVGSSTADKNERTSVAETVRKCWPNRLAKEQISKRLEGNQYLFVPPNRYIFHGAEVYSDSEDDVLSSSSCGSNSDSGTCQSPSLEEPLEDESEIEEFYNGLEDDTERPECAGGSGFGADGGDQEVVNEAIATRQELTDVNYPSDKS
Source text: For measurements of SIR2 activities, the quantitative test kit for NAD-dependent histone deacetylase activity CycLex® SIR2 Assay kit (Cat# CY-1151) was used according to instructions of manufacturer (CycLex Co., Ltd. 1063-103 Ohara, Tera-Sawaoka Ina, Nagano 396-0002 Japan). All substances tested in the SIR assay were cross-checked for their influence on the lysyl-endopeptidase. For this control an already deacetylated substrate peptide was used in order to measure directly lysyl-endopeptidase activity.
For measurements of SIR2 activities, the quantitative test kit for NAD-dependent histone deacetylase activity CycLex® SIR2 Assay kit (Cat# CY-1151) was used according to instructions of manufacturer (CycLex Co., Ltd. 1063-103 Ohara, Tera-Sawaoka Ina, Nagano 396-0002 Japan).

[3] = tested on: D3 embryonic stem (ES) cells, neurons; assay: Cell culture model for chemical ischemia and neuroprotection (calcium imaging); type: cell-based, mice; settings: β-methyl-cyclodextrin or filipin
Method: For all experiments, D3 embryonic stem (ES) cells derived from 129/sv mice [Okabe et al., 1996] were cultivated for 12 days, with passages on days 2, 4, 7 and 9 as described previously [Sommer et al., 2004]. Insult conditions: Cells (24-well plates) were pre-incubated with or without 20 nM EPO in fresh medium for 24 hours at 37° C. Cells were rinsed once with low K^+ solution (140 mM NaCl, 4.7 mM KCl, 1.2 mM KH2PO4, 2.5 mM CaCl2, 1.2 mM MgSO4, 11 mM glucose, 15 mM Hepes-NaOH, pH 7.35). Cells (either with or without EPO pre-incubation) were incubated for up to 45 min (37° C.) with either low K^+ solution or with glucose-free low K^+ solution supplemented with 1 mM KCN (chemical ischemia solution [Kume et al., 2002]). Vitality control to asses numbers of surviving neurons was performed by a brief stimulation with a low dose of glutamate (10 μM). Afterwards, cells were washed three times with ice cold phosphate buffered saline (PBS), and then proteins were harvested. Suspended cells were pelleted at 500×G, and lysed into 9M urea 4% CHAPS. The cell lysate was desalted with a NAP-10 column (Amersham Biosciences), preequilibrated with the same buffer, and protein content was determined.
Functional tests by calcium imaging were performed essentially as described [Sommer et al., 2004]. Briefly, cells were loaded with 2 μM of […] in DMEM for 45 min at 37° C. in the dark. Measurements of relative changes in [Ca^2+] were made on an inverted epifluorescence microscope (Olympus IX70 S1F2) with a Polychrom IV Monochromator (Xe-lamp, USHIO). Excitation wavelengths (λ1, λ2) and the emission wavelength were 340, 380 and 510 nm, respectively. Acquisition and analysis of data after appropriate stimulation were performed by using MetaFluor software (Universal Imaging Corporation). Image resolution was 168×129 pixels (binning 8×8, pixel size 6.8×6.8 μm). Only cells identified as neurons by morphological criteria and occasional immunostaining (not shown) and those whose calcium levels returned to the resting state after the first stimulation were taken into account. Controls included nominal zero calcium (negative) and 5 μM ionomycin (positive), 10 μM glutamate (positive) and depolarisation (55 mM K+) (positive). Pharmacological agents were applied by a multi-valve, single-output focal drug application device (ALA Scientific) with the perfusion system DAD-12. […] During each stimulation event 20 image pairs were acquired.

[4] = tested on: poly-ADP-ribosylated proteins; assay: PARP inhibition under cellular conditions (Western blot of poly-ADP-ribosylated proteins); type: cell-based; settings: ischemic insult of neural cells by KCN/glucose deprivation; read-out: IC 50 of decrease of poly-ADP-ribosylated proteins
[5] = tested on: 3T3 fibroblasts; assay: LPS challenge, cell survival by Trypan Blue; type: cell-based; settings: LPS 100 ng/ml for 60 min
Method: (§1) Cell pellets were further investigated by Western blot staining with anti Cox-2 and anti iNOS antibodies of 1D polyacrylamide gels.
(§2) Cell survival was assessed by Trypan Blue staining.

[6] = tested on: A 549 cells; assay: LPS challenge, cell survival by Trypan Blue; type: cell-based; settings: LPS 100 ng/ml for 60 min
Method: as §1, §2

[7] = tested on: neurally differentiated V56 embryonic stem cells; assay: LPS challenge, cell survival by Trypan Blue; type: cell-based; settings: LPS 100 ng/ml for 60 min
Method: as §1, §2

[8] = tested on: undifferentiated V56 embryonic stem cells; assay: LPS challenge, cell survival by Trypan Blue; type: cell-based; settings: LPS 100 ng/ml for 60 min
Method: as §1, §2

[9] = tested on: iNOS and Cox-2; assay: Cox-2 and iNOS expression after LPS challenge (Western blot); type: cell-based; settings: LPS 100 ng/ml for 60 min
Method: as §1, §2

[10] = Blood-brain-barrier passage: HPLC of plasma and CSF
Source text: J. Gastroenterol. 66, 35ff.; Homon et al., 1987, Therapeutic Drug Monitoring 9, 236ff.).

[11] = tested on: traumatic brain injury (TBI); assay: Controlled Cortical Impact Injury (traumatic brain injury model); type: in vivo
Method: The model employed a direct shock to the dura via a burrhole, animals were treated according to the following schemes: Vehicle, LS-75, 8 animals per group starting the study, 2 spare animals; animals were sacrificed 44 h after injury, the endpoints were survival, post injury signs, lesion size by FLB (Fast Luxol Blue) and EMAP (Endothelial, Monocyte, Activating Peptide) staining. The dosing i.p. 100 mg/kg 2 h prior to injury; 40 mg/kg i.p. 2 h after injury; 40 mg/kg i.p. 8 h after injury; 40 mg/kg i.p. 17 h after injury; 40 mg/kg i.p. 25 h after injury; 70 mg/kg i.p. 34 h after injury; Formulation: LS-75 was prepared as a DMSO slurry (not solution) in a mortar and pestle and saline will be added slowly with grinding to reach 4% DMSO final concentration. The suspension is maintained at room temperature and the preparation used for the duration of the study. To vary dose, the volume injected may change. Volume for 100 mg/kg was be 4 mL/kg.

SMILES: O=C1Nc2cccnc2Nc2ccccc21 [LS-75, 6H-pyrido[2,3-b][1,4]benzodiazepin-6-one]
- PARP-1 inhibition (in words) [1]: moderately strong PARP-1 inhibitor
- IC50 ([1]; IC50 PARP-1 inhibition, R&D assay, recombinant monomeric PARP-1): 18 µM and ~20 µM
- IC50 [2]: 1000 to 5000 µM
- SIR-2 inhibition (in words) [2]: weak SIR 2 inhibitor; also recorded: weak SIR-2 inhibitors
- SIR-2 inhibition (in words) ([2]; listed as PBD/LS-75): weak inhibitory effect
- neuroprotective effect under raft-disrupting conditions [3]: does not occur
- IC50 [4]: ~0.3 µM
- protection from LPS challenge [5]: protect
- protection from LPS challenge [6]: protect
- protection from LPS challenge [7]: protect
- protection from LPS challenge [8]: protect
- expression of inducible inflammatory markers iNOS and Cox-2 [9]: decreased expression
- passage through the BBB ([10]; LS-75 applied directly): substantial passage
- LS-75 levels in CSF ([10]; after Pirenzepine application, after 6 h): substantial increase
- Kp ([10]; rat, in vivo, 50 mg/kg): 0.25 to 0.3
- LS-75 in CSF after Mevastatin pretreatment ([10]; rats, Mevastatin 0.15 mg/day for 14 days before oral gavage): far less
- higher concentrations in plasma after Mevastatin pretreatment ([10]; rats, Mevastatin 0.15 mg/day for 14 days before oral gavage of 50 mg Pirenzepine and LS-75): about 50%
- reduction of secondary lesions ([11]; 44 h after induction of TBI, i.p. dosing, compared to vehicle controls): approx. 50%
- reduction of markers for cell damage (fast luxol blue and EMAP) ([11]; contralateral hippocampus, compared to controls): 40-60%
